Source: ChEMBL document CHEMBL1201862, “PubChem BioAssay data set” (2004)
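In this assay, cells in 96-well plates receive the compound at five concentrations for 48 hours. Endpoints are linearly interpolated between the surrounding concentrations. At the GI50, growth is halved.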 Calls of active or inactive are those of the source. Cut-off read from the data, not from the text of the source: active = GI50 up to about 1.1 µM and inactive = higher.

Tests used:
Experiment in all cases: inhibition of tumour cell growth, NCI panel, 48 h
[1] = tested on: CCRF-CEM
[2] = tested on: DU-145
[3] = tested on: HCC 2998
[4] = tested on: HCT-15
[5] = tested on: HL-60
[6] = tested on: KM12
[7] = tested on: MDA-MB-435
[8] = tested on: MOLT-4
[9] = tested on: Malme-3M
[10] = tested on: NCI-H23
[11] = tested on: OVCAR-3
[12] = tested on: OVCAR-5
[13] = tested on: RPMI-8226
[14] = tested on: SK-MEL-2
[15] = tested on: SW-620
[16] = tested on: UACC-62
[17] = tested on: IGROV-1
[18] = tested on: NCI-H460
[19] = tested on: SK-MEL-5

Compound: Cc1ccc(/C=c2\c(=O)[nH]c3nc4ccccc4c(=O)n23)cc1
- GI50 [1]: 30.7 µM (inactive)
- GI50 [2]: 53 µM (inactive)
- GI50 [3]: 25.4 µM (inactive)
- GI50 [4]: 34.8 µM
- GI50 [5]: 29.2 µM (inactive)
- GI50 [6]: 45.7 µM (inactive)
- GI50 [7]: 24.9 µM (inactive)
- GI50 [8]: 38.8 µM (inactive)
- GI50 [9]: 45.5 µM (inactive)
- GI50 [10]: 34.4 µM (inactive)
- GI50 [11]: 32.8 µM (inactive)
- GI50 [12]: > 100 µM (inactive)
- GI50 [13]: 22.9 µM (inactive)
- GI50 [14]: 62.2 µM (inactive)
- GI50 [15]: 21.8 µM (inactive)
- GI50 [16]: 33.5 µM (inactive)

Compound: COc1ccccc1C#C/C=C\C#Cc1ccccc1C#N
- GI50 [1]: 5.26 µM (inactive)
- GI50 [2]: 20 µM (inactive)
- GI50 [3]: 6.19 µM (inactive)
- GI50 [4]: 6.93 µM
- GI50 [5]: 4.55 µM (inactive)
- GI50 [17]: 10.4 µM (inactive)
- GI50 [6]: 6.37 µM (inactive)
- GI50 [7]: 3.24 µM (inactive)
- GI50 [8]: 0.268 µM (active)
- GI50 [9]: 9.98 µM (inactive)
- GI50 [10]: 5.61 µM (inactive)
- GI50 [18]: 13.3 µM (inactive)
- GI50 [11]: 4.4 µM (inactive)
- GI50 [12]: 39.2 µM (inactive)
- GI50 [14]: 14.9 µM (inactive)
- GI50 [19]: 2.09 µM (inactive)
- GI50 [15]: 6.32 µM (inactive)
- GI50 [16]: 23.7 µM (inactive)

Compound: NC(=S)SC1=NC(=O)C2(NN1)c1ccccc1-c1ccccc12
- GI50 [1]: > 10 µM (inactive)
- GI50 [2]: > 10 µM (inactive)
- GI50 [3]: > 10 µM (inactive)
- GI50 [4]: > 10 µM
- GI50 [5]: > 10 µM (inactive)
- GI50 [17]: > 10 µM (inactive)
- GI50 [6]: > 10 µM (inactive)
- GI50 [7]: > 10 µM (inactive)
- GI50 [9]: > 10 µM (inactive)
- GI50 [10]: > 10 µM (inactive)
- GI50 [18]: 8.59 µM (inactive)
- GI50 [13]: 5.12 µM (inactive)
- GI50 [19]: 6.12 µM (inactive)
- GI50 [15]: > 10 µM (inactive)
- GI50 [16]: > 10 µM (inactive)

Compound: O=C1NNC2(C(=O)N1)c1ccccc1-c1ccccc12
- GI50 [1]: > 10 µM (inactive)
- GI50 [2]: > 10 µM (inactive)
- GI50 [3]: > 10 µM (inactive)
- GI50 [4]: > 10 µM
- GI50 [5]: > 10 µM (inactive)
- GI50 [17]: > 10 µM (inactive)
- GI50 [6]: > 10 µM (inactive)
- GI50 [7]: > 10 µM (inactive)
- GI50 [8]: > 10 µM (inactive)
- GI50 [9]: > 10 µM (inactive)
- GI50 [10]: > 10 µM (inactive)
- GI50 [18]: > 10 µM (inactive)
- GI50 [13]: > 10 µM (inactive)
- GI50 [19]: > 10 µM (inactive)
- GI50 [15]: > 10 µM (inactive)
- GI50 [16]: > 10 µM (inactive)

Compound: Cc1coc2c1[C@@H](O)[C@@]1(C)[C@H](CCC[C@@H]1C)C2
- GI50 [1]: 37.6 µM (inactive)
- GI50 [2]: 37 µM (inactive)
- GI50 [3]: 42.4 µM (inactive)
- GI50 [4]: 23.8 µM
- GI50 [5]: 23.7 µM (inactive)
- GI50 [17]: 54.6 µM (inactive)
- GI50 [6]: 85.3 µM (inactive)
- GI50 [7]: 15.1 µM (inactive)
- GI50 [8]: 24.8 µM (inactive)
- GI50 [9]: 30 µM (inactive)
- GI50 [10]: 50.9 µM (inactive)
- GI50 [18]: 45.5 µM (inactive)
- GI50 [11]: 23.9 µM (inactive)
- GI50 [12]: 67 µM (inactive)
- GI50 [13]: 31.8 µM (inactive)
- GI50 [19]: 49.9 µM (inactive)
- GI50 [15]: 37.8 µM (inactive)
- GI50 [16]: 56.2 µM (inactive)

Compound: Cc1ccc(-c2nc3cc(Cl)ccc3[nH]2)cc1
- GI50 [1]: > 100 µM (inactive)
- GI50 [2]: > 100 µM (inactive)
- GI50 [3]: 53.2 µM (inactive)
- GI50 [4]: 80.5 µM
- GI50 [5]: 27 µM (inactive)
- GI50 [17]: > 100 µM (inactive)
- GI50 [6]: 46.8 µM (inactive)
- GI50 [7]: 54.1 µM (inactive)
- GI50 [8]: 32.4 µM (inactive)
- GI50 [9]: > 100 µM (inactive)
- GI50 [10]: > 100 µM (inactive)
- GI50 [18]: > 100 µM (inactive)
- GI50 [11]: > 100 µM (inactive)
- GI50 [13]: 46.8 µM (inactive)
- GI50 [14]: > 100 µM (inactive)
- GI50 [19]: > 100 µM (inactive)
- GI50 [15]: > 100 µM (inactive)
- GI50 [16]: > 100 µM (inactive)

Compound: CC(=O)C1C(=O)C(=O)N(c2ccc([N+](=O)[O-])cc2Cl)C1=O (stereo not drawn)
- GI50 [1]: > 100 µM (inactive)
- GI50 [2]: > 100 µM (inactive)
- GI50 [3]: > 100 µM (inactive)
- GI50 [4]: > 100 µM
- GI50 [5]: 93.1 µM (inactive)
- GI50 [17]: > 100 µM (inactive)
- GI50 [6]: > 100 µM (inactive)
- GI50 [7]: > 100 µM (inactive)
- GI50 [8]: 45.6 µM (inactive)
- GI50 [10]: > 100 µM (inactive)
- GI50 [18]: > 100 µM (inactive)
- GI50 [11]: 94.2 µM (inactive)
- GI50 [12]: > 100 µM (inactive)
- GI50 [14]: > 100 µM (inactive)
- GI50 [19]: > 100 µM (inactive)
- GI50 [15]: > 100 µM (inactive)
- GI50 [16]: > 100 µM (inactive)
